A word on the IC50: it is the concentration that gives 50% inhibition.

Molecules are shown by their SMILES. Where a name gives a salt, the structure may show the parent alone.

This assay addresses human recombinant HDAC6 (Homo sapiens (Human), UniProt Q9UBN7). Nature of the assay: HDAC6 enzyme activity inhibition assay (HDAC Fluorimetric Drug Discovery Kit). In kind it is biochemical. The conditions noted are these: for HDAC6 selectivity (fold): HDAC6 versus HDAC1; for IC50: human recombinant HDAC6, same protocol as HDAC1 test. On the procedure: In order to examine the HDAC6 selectivity of the compounds of formula I of the present invention by HDAC1 and HDAC6 enzymatic activity inhibition assays, an experiment was performed using a conventional substance as a control.
HDAC enzyme activity was measured using a HDAC Fluorimetric Drug Discovery Kit (BML-AK511, 516, Enzo Life Science). For the HDAC1 enzyme activity test, human recombinant HDAC1 (BML-SE456) was used as an enzyme source, and Fluor de Lys®-“SIRT1 (BNL-KI177) was used as a substrate. A 5-fold dilution of the compound was seeded into a 96-well plate, and then 0.3 μg of the enzyme and 10 μM of the substrate were added to each well of the plate and allowed to react at 30 for 60 minutes. Then, Fluor de Lys®-Developer II (BML-KI176) was added thereto and allowed to react for 30 minutes, after which the fluorescence value (Ex 360, Em 460) was measured using a multi-plate reader (Flexstation 3, Molecular Device). The HDAC6 enzyme was tested using human recombinant HDAC6 (382180) (Calbiochem) according to the same protocol as the HDAC1 enzyme activity test method. Based on the resulting values, each IC50 value was calculated using GraphPad Prism4.0 program.

human recombinant HDAC6, sequence (Q9UBN7 whole entry): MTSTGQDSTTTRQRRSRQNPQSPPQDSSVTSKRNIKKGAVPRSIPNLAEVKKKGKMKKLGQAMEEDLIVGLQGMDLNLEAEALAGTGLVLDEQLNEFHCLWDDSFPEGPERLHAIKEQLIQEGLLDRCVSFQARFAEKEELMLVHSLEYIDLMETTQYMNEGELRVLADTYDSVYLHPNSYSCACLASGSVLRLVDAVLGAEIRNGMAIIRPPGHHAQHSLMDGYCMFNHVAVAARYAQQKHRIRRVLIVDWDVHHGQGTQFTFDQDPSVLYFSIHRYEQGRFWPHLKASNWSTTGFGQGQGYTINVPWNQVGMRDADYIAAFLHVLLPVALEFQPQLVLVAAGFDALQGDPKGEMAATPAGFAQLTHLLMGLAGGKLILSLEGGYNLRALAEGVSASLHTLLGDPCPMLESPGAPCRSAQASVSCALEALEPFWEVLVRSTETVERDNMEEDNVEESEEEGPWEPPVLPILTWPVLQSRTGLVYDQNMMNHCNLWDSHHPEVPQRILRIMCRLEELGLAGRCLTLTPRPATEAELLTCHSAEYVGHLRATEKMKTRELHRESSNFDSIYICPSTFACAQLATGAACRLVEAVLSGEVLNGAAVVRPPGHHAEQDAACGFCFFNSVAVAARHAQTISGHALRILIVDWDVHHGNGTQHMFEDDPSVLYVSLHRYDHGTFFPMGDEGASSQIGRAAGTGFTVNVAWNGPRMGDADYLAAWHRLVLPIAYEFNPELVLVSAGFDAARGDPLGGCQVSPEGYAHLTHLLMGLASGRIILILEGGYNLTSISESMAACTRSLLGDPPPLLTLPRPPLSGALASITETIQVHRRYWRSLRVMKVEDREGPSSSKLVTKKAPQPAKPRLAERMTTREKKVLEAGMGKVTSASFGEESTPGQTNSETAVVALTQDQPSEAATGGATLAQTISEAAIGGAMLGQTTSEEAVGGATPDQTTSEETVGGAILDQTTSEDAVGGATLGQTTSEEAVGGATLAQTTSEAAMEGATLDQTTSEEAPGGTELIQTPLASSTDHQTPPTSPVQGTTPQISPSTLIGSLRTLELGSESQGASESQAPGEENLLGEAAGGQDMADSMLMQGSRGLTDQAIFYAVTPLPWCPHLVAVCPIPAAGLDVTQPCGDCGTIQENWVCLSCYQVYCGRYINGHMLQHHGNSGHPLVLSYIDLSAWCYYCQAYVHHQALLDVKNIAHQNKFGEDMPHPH

On to `O=S(=O)(N1CCNCC1)N(Cc1ccc(-c2nnc(C(F)F)o2)cc1F)c1cccnc1` [Compound 11317, N-(4-(5-(difluoromethyl)-1,3,4-oxadiazol-2-yl)-2-fluorobenzyl)-N-(pyridin-3-yl)piperazine-1-sulfonamide Dihydrochloride], for which the “HDAC6 selectivity (fold)” value was determined as 1234 fold and the IC50 worked out at 0.081 µM.

As for `O=S(=O)(N1CCN(C2COC2)CC1)N(Cc1ccc(-c2nnc(C(F)F)o2)cn1)c1ccccc1` [Compound 11574, N-((5-(5-(difluoromethyl)-1,3,4-oxadiazol-2-yl)pyridin-2-yl)methyl)-4-(oxetan-3-yl)-N-phenylpiperazine-1-sulfonamide], the “HDAC6 selectivity (fold)” value worked out at 6250 fold and the IC50 was determined as 0.016 µM.

For `O=S(=O)(N1CCN(C2COC2)CC1)N(Cc1ccc(-c2nnc(C(F)F)o2)cc1F)c1ccccc1` [Compound 11379, N-(4-(5-(difluoromethyl)-1,3,4-oxadiazol-2-yl)-2-fluorobenzyl)-4-(oxetan-3-yl)-N-phenylpiperazine-1-sulfonamide], the “HDAC6 selectivity (fold)” value is listed as 3846 fold and the 50% inhibitory concentration (IC50) was found to be 0.026 µM.

As to `C[C@H]1CN(S(=O)(=O)N(Cc2ccc(-c3nnc(C(F)F)o3)cn2)c2cccc(Cl)c2)CCN1C1COC1` [Compound 11830, (S)—N-(3-chlorophenyl)-N-((5-(5-(difluoromethyl)-1,3,4-oxadiazol-2-yl)pyridin-2-yl)methyl)-3-methyl-4-(oxetan-3-yl)piperazine-1-sulfonamide], the “HDAC6 selectivity (fold)” value is listed as 5882 fold and the concentration for half-maximal inhibition (IC50) was found to be 0.017 µM.

Turning to `C[C@@H]1CN(S(=O)(=O)N(Cc2ccc(-c3nnc(C(F)F)o3)cc2)c2ccccc2)C[C@H](C)N1C(=O)C(F)F` [Compound 11644, (3S,5R)-4-(2,2-difluoroacetyl)-N-(4-(5-(difluoromethyl)-1,3,4-oxadiazol-2-yl)benzyl)-3,5-dimethyl-N-phenylpiperazine-1-sulfonamide], the “HDAC6 selectivity (fold)” value was 770 fold and the IC50 amounted to 0.13 µM.

On to `Cl.O=S(=O)(N1CCNCC1)N(Cc1ccc(-c2nnc(C(F)F)o2)cc1F)c1cccc(F)c1` [Compound 11313, N-(4-(5-(difluoromethyl)-1,3,4-oxadiazol-2-yl)-2-fluorobenzyl)-N-(3-fluorophenyl)piperazine-1-sulfonamide Hydrochloride], for which the “HDAC6 selectivity (fold)” value amounted to 4246 fold and the IC50 was determined as 0.024 µM.

Turning to `CN(CCN1CCN(C2COC2)CC1)S(=O)(=O)N(Cc1ccc(-c2nnc(C(F)F)o2)cc1)c1ccccc1` [Compound 11704, 2-((4-(((N-methyl-N-(2-(4-(oxetan-3-yl)piperazin-1-yl)ethyl)sulfamoyl)(phenyl)amino)methyl))phenyl)-5-(difluoromethyl)-1,3,4-oxadiazole], the “HDAC6 selectivity (fold)” value amounted to 429 fold and the IC50 was 0.233 µM.

On to `Cl.O=S(=O)(N1CCC2(CC1)CNC2)N(Cc1ccc(-c2nnc(C(F)F)o2)cc1)c1ccccc1` [Compound 11787, N-(4-(5-(difluoromethyl)-1,3,4-oxadiazol-2-yl)benzyl)-N-phenyl-2,7-diazaspiro[3.5]nonane-7-sulfonamide Hydrochloride], for which the “HDAC6 selectivity (fold)” value stood at 1041 fold and the IC50 came to 0.096 µM.

On to `C[C@@H]1CN(S(=O)(=O)N(Cc2ccc(-c3nnc(C(F)F)o3)cn2)c2cccc(Cl)c2)CCN1C1COC1` [Compound 11826, (R)—N-(3-chlorophenyl)-N-((5-(5-(difluoromethyl)-1,3,4-oxadiazol-2-yl)pyridin-2-yl)methyl)-3-methyl-4-(oxetan-3-yl)piperazine-1-sulfonamide], for which the “HDAC6 selectivity (fold)” value was found to be 2439 fold and the IC50 was found to be 0.041 µM.

On to `CC(=O)N1CCN(S(=O)(=O)N(Cc2ccc(-c3nnc(C(F)(F)F)o3)cc2F)c2cccnc2)CC1` [Compound 11322, 4-acetyl-N-(2-fluoro-4-(5-(trifluoromethyl)-1,3,4-oxadiazol-2-yl)benzyl)-N-(pyridin-3-yl)piperazine-1-sulfonamide], for which the “HDAC6 selectivity (fold)” value was 1507 fold and the IC50 was found to be 0.066 µM.

As for `CC(=O)N1CCN(S(=O)(=O)N(Cc2ccc(-c3nnc(C(F)F)o3)cc2F)c2ccccc2)CC1` [Compound 11302, 4-acetyl-N-(4-(5-(difluoromethyl)-1,3,4-oxadiazol-2-yl)-2-fluorobenzyl)-N-phenylpiperazine-1-sulfonamide], the “HDAC6 selectivity (fold)” value is recorded as 3174 fold and the IC50 came to 0.032 µM.

With `O=S(=O)(N1CCC2(CC1)CN(C1COC1)C2)N(Cc1ccc(-c2nnc(C(F)F)o2)cc1)c1ccccc1` [Compound 11788, N-(4-(5-(difluoromethyl)-1,3,4-oxadiazol-2-yl)benzyl)-2-(oxetan-3-yl)-N-phenyl-2,7-diazaspiro[3.5]nonane-7-sulfonamide], the “HDAC6 selectivity (fold)” value amounted to 561 fold and the concentration for half-maximal inhibition (IC50) turned out to be 0.178 µM.

In the case of `CC(C)C(=O)N1CCN(S(=O)(=O)N(Cc2ccc(-c3nnc(C(F)(F)F)o3)cc2F)c2ccccc2)CC1` [Compound 11296, N-(2-fluoro-4-(5-(trifluoromethyl)-1,3,4-oxadiazol-2-yl)benzyl)-4-isobutyryl-N-phenylpiperazine-1-sulfonamide], the “HDAC6 selectivity (fold)” value came out at 636 fold and the concentration for half-maximal inhibition (IC50) worked out at 0.157 µM.

For `Cc1cccc(N(Cc2ccc(-c3nnc(C(F)F)o3)cn2)S(=O)(=O)N2CCN(C3COC3)[C@@H](C)C2)c1` [Compound 11828, (S)—N-((5-(5-(difluoromethyl)-1,3,4-oxadiazol-2-yl)pyridin-2-yl)methyl)-3-methyl-4-(oxetan-3-yl)-N-(m-tolyl)piperazine-1-sulfonamide], the “HDAC6 selectivity (fold)” value amounted to 2380 fold and the IC50 came out at 0.042 µM.

Take `CC(C)N1CCN(S(=O)(=O)N(Cc2ccc(-c3nnc(C(F)F)o3)cc2)c2ccccc2)CC1` [Compound 11673, N-(4-(5-(difluoromethyl)-1,3,4-oxadiazol-2-yl)benzyl)-4-isopropyl-N-phenylpiperazine-1-sulfonamide]: the “HDAC6 selectivity (fold)” value is 1351 fold and the IC50 worked out at 0.074 µM.

Consider `O=S(=O)(N1CCN(C2CCC2)CC1)N(Cc1ccc(-c2nnc(C(F)F)o2)cn1)c1ccc(F)c(Cl)c1` [Compound 11671, N-(3-chloro-4-fluorophenyl)-4-cyclobutyl-N-((5-(5-(difluoromethyl)-1,3,4-oxadiazol-2-yl)pyridin-2-yl)methyl)piperazine-1-sulfonamide], for which the “HDAC6 selectivity (fold)” value is on record as 3703 fold and the IC50 came out at 0.027 µM.

For `CC(=O)N1CCN(CCN(C)S(=O)(=O)N(Cc2ccc(-c3nnc(C(F)F)o3)cc2)c2ccccc2)CC1` [Compound 11713, 2-((4-(((N-methyl-N-(2-(4-acetylpiperazin-1-yl)ethyl)sulfamoyl)(phenyl)amino)methyl))phenyl)-5-(difluoromethyl)-1,3,4-oxadiazole], the “HDAC6 selectivity (fold)” value was determined as 142 fold and the half-inhibitory concentration (IC50) is 0.705 µM.

In the case of `C[C@@H]1CN(S(=O)(=O)N(Cc2ccc(-c3nnc(C(F)F)o3)cc2)c2ccccc2)C[C@H](C)N1C` [Compound 11643, (3S,5R)—N-(4-(5-(difluoromethyl)-1,3,4-oxadiazol-2-yl)benzyl)-3,4,5-trimethyl-N-phenylpiperazine-1-sulfonamide], the “HDAC6 selectivity (fold)” value is 1443 fold and the 50% inhibitory concentration (IC50) stood at 0.069 µM.

On to `CCN1[C@H](C)CN(S(=O)(=O)N(Cc2ccc(-c3nnc(C(F)F)o3)cc2)c2ccccc2)C[C@@H]1C` [Compound 11640, (3S,5R)—N-(4-(5-(difluoromethyl)-1,3,4-oxadiazol-2-yl)benzyl)-4-ethyl-3,5-dimethyl-N-phenylpiperazine-1-sulfonamide], for which the “HDAC6 selectivity (fold)” value was 946 fold and the concentration for half-maximal inhibition (IC50) amounted to 0.105 µM.

Consider `CC(C)N1CCN(S(=O)(=O)N(Cc2ccc(-c3nnc(C(F)F)o3)cc2)c2ccc(F)c(Cl)c2)CC1` [Compound 11651, N-(3-chloro-4-fluorophenyl)-N-(4-(5-(difluoromethyl)-1,3,4-oxadiazol-2-yl)benzyl)-4-iso propylpiperazine-1-sulfonamide], for which the “HDAC6 selectivity (fold)” value was 207 fold and the IC50 stood at 0.481 µM.

For `CCN1CCN(S(=O)(=O)N(Cc2ccc(-c3nnc(C(F)F)o3)cc2F)c2ccccc2)CC1` [Compound 11307, N-(4-(5-(difluoromethyl)-1,3,4-oxadiazol-2-yl)-2-fluorobenzyl)-4-ethyl-N-phenylpiperazine-1-sulfonamide], the “HDAC6 selectivity (fold)” value stood at 2366 fold and the IC50 came to 0.042 µM.

Consider `CCC(=O)N1CCN(S(=O)(=O)N(Cc2ccc(-c3nnc(C(F)F)o3)cc2F)c2ccccc2)CC1` [Compound 11303, N-(4-(5-(difluoromethyl)-1,3,4-oxadiazol-2-yl)-2-fluorobenzyl)-N-phenyl-4-propionylpiperazine-1-sulfonamide], for which the “HDAC6 selectivity (fold)” value amounted to 3187 fold and the IC50 came to 0.031 µM.

For `CS(=O)(=O)N1CCN(S(=O)(=O)N(Cc2ccc(-c3nnc(C(F)F)o3)cc2F)c2cccc(F)c2)CC1` [Compound 11314, N-(4-(5-(difluoromethyl)-1,3,4-oxadiazol-2-yl)-2-fluorobenzyl)-N-(3-fluorophenyl)-4-(methylsulfonyl)piperazine-1-sulfonamide], the “HDAC6 selectivity (fold)” value stood at 3061 fold and the IC50 was determined as 0.033 µM.

For the origin of these results see US10464911B2, “1,3,4-oxadiazole sulfamide derivative compounds as histone deacetylase 6 inhibitor, and the pharmaceutical composition comprising the same” (Chong Kun Dang Pharmaceutical Corp., priority 2015, dated 2019).
